Common to all, as to type: functional, cell-based
Conditions in all cases: dog, mdck-ii

Data set [1] addresses T1, Broad substrate specificity ATP-binding cassette transporter ABCG2 (Mus musculus, UniProt Q7TMS5).
T1 sequence (Q7TMS5 whole entry): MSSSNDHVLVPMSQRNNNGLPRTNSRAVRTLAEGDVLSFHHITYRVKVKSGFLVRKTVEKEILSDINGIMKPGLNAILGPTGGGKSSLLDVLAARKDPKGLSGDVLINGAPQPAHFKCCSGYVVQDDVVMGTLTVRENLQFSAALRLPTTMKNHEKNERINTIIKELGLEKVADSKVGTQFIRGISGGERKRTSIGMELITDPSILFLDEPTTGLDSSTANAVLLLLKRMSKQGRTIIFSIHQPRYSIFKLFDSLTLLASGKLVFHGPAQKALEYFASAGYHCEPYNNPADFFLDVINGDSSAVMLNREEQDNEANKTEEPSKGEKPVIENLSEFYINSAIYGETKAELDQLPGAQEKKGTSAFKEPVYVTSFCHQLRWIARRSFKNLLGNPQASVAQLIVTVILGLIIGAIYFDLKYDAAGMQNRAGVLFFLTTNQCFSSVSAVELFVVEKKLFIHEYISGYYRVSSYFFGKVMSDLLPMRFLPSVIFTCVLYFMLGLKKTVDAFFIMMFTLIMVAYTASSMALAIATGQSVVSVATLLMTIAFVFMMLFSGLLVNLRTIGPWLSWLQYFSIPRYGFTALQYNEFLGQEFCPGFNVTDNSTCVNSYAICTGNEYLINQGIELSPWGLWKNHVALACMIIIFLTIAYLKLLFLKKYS
Put plainly: TP_TRANSPORTER: transepithelial transport of PhIP (basal to apical) in Bcrp1-expressing MDCKII cells.

Data set [2] addresses T2, Broad substrate specificity ATP-binding cassette transporter ABCG2 (Homo sapiens, UniProt Q9UNQ0).
T2 sequence (Q9UNQ0 whole entry): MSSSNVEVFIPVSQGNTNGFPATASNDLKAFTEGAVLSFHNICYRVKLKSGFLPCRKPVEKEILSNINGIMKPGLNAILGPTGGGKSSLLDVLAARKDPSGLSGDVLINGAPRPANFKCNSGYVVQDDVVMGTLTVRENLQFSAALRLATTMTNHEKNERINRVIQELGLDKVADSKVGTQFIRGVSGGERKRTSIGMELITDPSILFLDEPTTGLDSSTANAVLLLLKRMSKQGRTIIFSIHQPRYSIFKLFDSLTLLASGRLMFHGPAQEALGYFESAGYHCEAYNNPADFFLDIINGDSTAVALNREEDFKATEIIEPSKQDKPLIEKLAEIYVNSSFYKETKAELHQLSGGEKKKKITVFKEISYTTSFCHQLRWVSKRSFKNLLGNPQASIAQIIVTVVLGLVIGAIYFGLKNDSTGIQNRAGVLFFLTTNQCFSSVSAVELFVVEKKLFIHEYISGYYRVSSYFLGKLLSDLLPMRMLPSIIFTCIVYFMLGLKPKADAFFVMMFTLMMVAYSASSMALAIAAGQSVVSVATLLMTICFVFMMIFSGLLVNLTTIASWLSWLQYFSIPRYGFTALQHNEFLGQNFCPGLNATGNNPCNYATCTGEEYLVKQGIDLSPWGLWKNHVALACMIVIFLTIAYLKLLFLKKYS
Put plainly: TP_TRANSPORTER: transepithelial transport (basal to apical) in BCRP-expressing MDCKII cells.

Data set [3] concerns the target T1, Broad substrate specificity ATP-binding cassette transporter ABCG2. Put plainly: TP_TRANSPORTER: transepithelial transport (basal to apical) in Bcrp1-expressing MDCKII cells.
The target in data set [4] is T2, Broad substrate specificity ATP-binding cassette transporter ABCG2. Put plainly: TP_TRANSPORTER: transepithelial transport of PhIP (basal to apical) in BCRP-expressing MDCKII cells.

As to `COc1ccc2c3c([nH]c2c1)[C@H](CC(C)C)N1C(=O)[C@H](CCC(=O)OC(C)(C)C)NC(=O)[C@@H]1C3`, the Activity result in data set [1] was “inhibitor []”.
On to `CCC[S+]([O-])c1ccc2[nH]c(NC(=O)OC)nc2c1` (stereo unspecified) [ALBENDAZOLE OXIDE], for which the Activity entry in data set [2] and in data set [3] was “substrate []” throughout.
With `COC(=O)Nc1nc2ccc([S+]([O-])c3ccccc3)cc2[nH]1` (stereo unspecified) [OXFENDAZOLE], the Activity result was “inhibitor []” in data set [1], “substrate []” in data set [3] and “inhibitor []” in data set [4].

Values taken from ChEMBL document CHEMBL2074448, “Transport of anthelmintic benzimidazole drugs by breast cancer resistance protein (BCRP/ABCG2)” (Drug Metab Dispos, 2005).
